Key:
[1] = molecular target: Sodium-dependent dopamine transporter (Homo sapiens, UniProt Q01959)
[2] = molecular target: 5-hydroxytryptamine receptor 2B (Homo sapiens, UniProt P41595); format: functional, cell-based
[3] = molecular target: Sodium-dependent serotonin transporter (Homo sapiens, UniProt P31645)
Thromboxane A2 receptor = molecular target: T1, Thromboxane A2 receptor (Homo sapiens, UniProt P21731); format: functional, cell-based
T1 sequence (P21731 whole entry): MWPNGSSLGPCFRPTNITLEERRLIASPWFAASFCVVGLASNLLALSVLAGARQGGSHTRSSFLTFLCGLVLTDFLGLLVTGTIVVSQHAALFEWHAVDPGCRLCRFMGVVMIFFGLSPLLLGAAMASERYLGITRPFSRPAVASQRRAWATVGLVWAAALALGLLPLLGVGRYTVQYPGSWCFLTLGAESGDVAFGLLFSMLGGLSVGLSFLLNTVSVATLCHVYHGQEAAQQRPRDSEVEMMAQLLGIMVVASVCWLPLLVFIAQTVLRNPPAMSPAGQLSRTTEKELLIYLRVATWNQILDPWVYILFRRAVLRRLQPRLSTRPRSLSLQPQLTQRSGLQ

[4] = molecular target: T2, Alpha-2A adrenergic receptor (Homo sapiens, UniProt P08913)
T2 sequence (P08913 whole entry): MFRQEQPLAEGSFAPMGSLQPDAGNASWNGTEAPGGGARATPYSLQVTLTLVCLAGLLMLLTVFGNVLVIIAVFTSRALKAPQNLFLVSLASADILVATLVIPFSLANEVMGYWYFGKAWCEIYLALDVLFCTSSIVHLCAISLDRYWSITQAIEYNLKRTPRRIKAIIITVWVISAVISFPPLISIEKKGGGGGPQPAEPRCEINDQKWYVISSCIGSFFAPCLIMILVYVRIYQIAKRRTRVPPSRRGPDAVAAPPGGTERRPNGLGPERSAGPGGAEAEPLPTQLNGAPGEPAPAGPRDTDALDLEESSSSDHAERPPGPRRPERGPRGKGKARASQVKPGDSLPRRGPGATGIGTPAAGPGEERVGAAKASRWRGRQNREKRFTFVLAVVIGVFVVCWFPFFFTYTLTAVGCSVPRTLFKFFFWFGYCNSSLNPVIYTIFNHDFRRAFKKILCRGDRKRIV

[5] = molecular target: T3, Muscarinic acetylcholine receptor M2 (Homo sapiens, UniProt P08172)
T3 sequence (P08172 whole entry): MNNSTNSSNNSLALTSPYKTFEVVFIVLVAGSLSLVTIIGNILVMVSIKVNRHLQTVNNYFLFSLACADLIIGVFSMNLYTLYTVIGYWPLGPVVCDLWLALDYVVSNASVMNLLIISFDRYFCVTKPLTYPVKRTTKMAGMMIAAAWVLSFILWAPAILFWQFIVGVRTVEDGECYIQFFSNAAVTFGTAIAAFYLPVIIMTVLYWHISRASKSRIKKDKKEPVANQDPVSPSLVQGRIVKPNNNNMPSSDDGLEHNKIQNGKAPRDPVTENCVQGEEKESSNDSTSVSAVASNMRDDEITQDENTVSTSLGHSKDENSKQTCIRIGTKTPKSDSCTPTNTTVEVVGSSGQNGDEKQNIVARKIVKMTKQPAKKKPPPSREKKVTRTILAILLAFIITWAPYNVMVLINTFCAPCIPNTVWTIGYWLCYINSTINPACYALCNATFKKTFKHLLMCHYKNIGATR

[6] = molecular target: Sodium-dependent noradrenaline transporter (Homo sapiens, UniProt P23975)
[7] = molecular target: T4, Prostaglandin G/H synthase 1 (Homo sapiens, UniProt P23219); format: functional
[8] = molecular target: T4, Prostaglandin G/H synthase 1; format: functional; remark: listed apart in the source
[9] = molecular target: T5, 5-hydroxytryptamine receptor 1A (Homo sapiens, UniProt P08908)
T5 sequence (P08908 whole entry): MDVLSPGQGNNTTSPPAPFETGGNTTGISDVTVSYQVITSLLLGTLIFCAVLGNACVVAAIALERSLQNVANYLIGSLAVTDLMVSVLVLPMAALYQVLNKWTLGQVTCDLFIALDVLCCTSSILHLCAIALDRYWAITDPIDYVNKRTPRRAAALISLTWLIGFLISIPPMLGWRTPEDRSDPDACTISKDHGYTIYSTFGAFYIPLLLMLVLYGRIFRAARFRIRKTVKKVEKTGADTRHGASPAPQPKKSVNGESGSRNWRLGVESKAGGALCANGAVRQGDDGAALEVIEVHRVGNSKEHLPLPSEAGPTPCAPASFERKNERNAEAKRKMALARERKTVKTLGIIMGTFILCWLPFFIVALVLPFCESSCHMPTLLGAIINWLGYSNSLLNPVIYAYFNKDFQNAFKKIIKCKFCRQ

Prothrombin = Prothrombin (Homo sapiens, UniProt P00734); format: functional
D(3) dopamine receptor = D(3) dopamine receptor (Homo sapiens, UniProt P35462)
Estrogen receptor = molecular target: T6, Estrogen receptor (Homo sapiens, UniProt P03372)
T6 sequence (P03372 whole entry): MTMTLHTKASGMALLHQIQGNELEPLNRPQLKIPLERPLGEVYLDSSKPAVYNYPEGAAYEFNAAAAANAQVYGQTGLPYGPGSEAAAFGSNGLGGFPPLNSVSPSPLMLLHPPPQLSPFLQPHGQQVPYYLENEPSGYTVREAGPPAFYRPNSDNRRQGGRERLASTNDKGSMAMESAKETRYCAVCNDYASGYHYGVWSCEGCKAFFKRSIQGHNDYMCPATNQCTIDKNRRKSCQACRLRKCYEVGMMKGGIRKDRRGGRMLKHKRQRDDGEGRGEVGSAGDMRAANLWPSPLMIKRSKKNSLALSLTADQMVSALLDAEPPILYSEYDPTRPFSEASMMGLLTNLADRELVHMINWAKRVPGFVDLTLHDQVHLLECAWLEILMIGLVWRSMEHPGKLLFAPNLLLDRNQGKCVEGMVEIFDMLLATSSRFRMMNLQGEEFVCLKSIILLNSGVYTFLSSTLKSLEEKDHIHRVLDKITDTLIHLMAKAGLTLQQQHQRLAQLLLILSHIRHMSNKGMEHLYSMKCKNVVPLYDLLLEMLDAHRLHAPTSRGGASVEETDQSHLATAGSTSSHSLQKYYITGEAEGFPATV

D(1A) dopamine receptor = D(1A) dopamine receptor (Homo sapiens, UniProt P21728)
[10] = molecular target: Vascular endothelial growth factor receptor 2 (Homo sapiens, UniProt P35968); format: functional
Further: assay procedure not described here.

Sequence of Sodium-dependent dopamine transporter (Q01959 whole entry): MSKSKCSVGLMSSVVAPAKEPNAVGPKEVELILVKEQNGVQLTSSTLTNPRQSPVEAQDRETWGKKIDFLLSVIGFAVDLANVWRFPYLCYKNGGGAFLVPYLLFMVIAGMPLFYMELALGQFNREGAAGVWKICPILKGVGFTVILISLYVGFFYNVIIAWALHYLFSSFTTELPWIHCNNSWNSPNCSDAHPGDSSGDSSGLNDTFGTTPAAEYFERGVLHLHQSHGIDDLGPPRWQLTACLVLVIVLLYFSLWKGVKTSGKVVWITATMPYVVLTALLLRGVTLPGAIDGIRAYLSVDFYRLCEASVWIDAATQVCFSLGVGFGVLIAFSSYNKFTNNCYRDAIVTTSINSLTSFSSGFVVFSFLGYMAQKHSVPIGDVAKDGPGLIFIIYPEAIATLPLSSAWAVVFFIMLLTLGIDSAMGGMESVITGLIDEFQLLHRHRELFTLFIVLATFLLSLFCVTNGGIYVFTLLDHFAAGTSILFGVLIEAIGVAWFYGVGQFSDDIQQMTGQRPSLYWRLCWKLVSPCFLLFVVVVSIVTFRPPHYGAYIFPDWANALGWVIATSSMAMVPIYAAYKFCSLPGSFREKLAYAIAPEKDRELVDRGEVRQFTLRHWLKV
Sequence of D(1A) dopamine receptor (P21728 whole entry): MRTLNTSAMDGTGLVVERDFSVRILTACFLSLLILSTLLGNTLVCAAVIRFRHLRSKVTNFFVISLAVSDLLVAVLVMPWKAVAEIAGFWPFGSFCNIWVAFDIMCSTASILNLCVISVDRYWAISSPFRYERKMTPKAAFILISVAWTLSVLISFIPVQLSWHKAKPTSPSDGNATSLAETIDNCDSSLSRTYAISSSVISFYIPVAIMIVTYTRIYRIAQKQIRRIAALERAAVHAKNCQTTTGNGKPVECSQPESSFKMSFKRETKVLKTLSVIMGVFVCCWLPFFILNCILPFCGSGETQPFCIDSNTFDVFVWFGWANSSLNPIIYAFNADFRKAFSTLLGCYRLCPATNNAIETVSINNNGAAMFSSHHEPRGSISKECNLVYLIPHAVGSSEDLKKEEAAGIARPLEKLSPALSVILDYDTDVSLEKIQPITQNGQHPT
T4 sequence (P23219 whole entry): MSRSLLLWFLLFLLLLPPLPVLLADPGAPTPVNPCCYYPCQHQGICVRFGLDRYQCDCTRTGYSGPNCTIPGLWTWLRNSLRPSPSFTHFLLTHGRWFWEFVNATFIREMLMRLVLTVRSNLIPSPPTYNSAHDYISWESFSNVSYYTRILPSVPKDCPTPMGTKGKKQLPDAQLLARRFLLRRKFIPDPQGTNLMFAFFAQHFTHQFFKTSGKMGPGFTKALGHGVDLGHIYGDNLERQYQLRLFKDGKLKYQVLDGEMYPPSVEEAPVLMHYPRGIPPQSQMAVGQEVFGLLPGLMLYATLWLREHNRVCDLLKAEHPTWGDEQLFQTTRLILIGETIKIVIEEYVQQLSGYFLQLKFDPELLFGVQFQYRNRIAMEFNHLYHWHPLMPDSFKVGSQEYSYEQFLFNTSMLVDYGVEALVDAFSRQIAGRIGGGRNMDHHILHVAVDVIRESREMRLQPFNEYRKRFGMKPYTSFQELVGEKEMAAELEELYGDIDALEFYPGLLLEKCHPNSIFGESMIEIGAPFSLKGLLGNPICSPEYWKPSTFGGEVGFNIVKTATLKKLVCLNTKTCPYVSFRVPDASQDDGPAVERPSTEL
Sequence of 5-hydroxytryptamine receptor 2B (P41595 whole entry): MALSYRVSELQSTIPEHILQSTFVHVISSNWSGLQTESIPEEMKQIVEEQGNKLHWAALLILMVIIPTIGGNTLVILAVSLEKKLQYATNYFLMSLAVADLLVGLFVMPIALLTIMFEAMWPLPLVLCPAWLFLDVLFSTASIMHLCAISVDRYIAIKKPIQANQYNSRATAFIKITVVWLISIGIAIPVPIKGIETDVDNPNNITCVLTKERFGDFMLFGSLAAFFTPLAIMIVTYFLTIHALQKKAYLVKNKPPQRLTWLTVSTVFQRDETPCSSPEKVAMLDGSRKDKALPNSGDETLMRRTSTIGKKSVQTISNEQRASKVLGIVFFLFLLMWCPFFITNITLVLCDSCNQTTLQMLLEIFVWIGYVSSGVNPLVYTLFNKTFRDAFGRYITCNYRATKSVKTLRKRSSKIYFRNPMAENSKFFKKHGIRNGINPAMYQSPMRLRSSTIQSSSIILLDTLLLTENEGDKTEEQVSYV
Sequence of Sodium-dependent noradrenaline transporter (P23975 whole entry): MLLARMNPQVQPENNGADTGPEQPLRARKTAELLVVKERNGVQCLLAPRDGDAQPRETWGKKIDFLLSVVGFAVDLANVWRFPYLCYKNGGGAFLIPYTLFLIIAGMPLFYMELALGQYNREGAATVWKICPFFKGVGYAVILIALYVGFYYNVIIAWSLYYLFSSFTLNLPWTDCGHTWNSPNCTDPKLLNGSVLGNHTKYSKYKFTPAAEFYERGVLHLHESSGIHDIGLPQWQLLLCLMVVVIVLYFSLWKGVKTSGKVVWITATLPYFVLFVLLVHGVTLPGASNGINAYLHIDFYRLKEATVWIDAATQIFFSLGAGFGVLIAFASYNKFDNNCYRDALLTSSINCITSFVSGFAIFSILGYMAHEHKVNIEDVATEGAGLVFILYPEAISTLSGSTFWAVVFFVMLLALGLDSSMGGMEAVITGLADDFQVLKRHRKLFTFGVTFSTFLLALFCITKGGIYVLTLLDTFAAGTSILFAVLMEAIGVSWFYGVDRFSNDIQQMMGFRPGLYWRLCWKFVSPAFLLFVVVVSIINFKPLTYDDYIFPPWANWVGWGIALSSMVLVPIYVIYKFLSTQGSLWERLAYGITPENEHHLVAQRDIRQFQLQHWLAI
Sequence of Sodium-dependent serotonin transporter (P31645 whole entry): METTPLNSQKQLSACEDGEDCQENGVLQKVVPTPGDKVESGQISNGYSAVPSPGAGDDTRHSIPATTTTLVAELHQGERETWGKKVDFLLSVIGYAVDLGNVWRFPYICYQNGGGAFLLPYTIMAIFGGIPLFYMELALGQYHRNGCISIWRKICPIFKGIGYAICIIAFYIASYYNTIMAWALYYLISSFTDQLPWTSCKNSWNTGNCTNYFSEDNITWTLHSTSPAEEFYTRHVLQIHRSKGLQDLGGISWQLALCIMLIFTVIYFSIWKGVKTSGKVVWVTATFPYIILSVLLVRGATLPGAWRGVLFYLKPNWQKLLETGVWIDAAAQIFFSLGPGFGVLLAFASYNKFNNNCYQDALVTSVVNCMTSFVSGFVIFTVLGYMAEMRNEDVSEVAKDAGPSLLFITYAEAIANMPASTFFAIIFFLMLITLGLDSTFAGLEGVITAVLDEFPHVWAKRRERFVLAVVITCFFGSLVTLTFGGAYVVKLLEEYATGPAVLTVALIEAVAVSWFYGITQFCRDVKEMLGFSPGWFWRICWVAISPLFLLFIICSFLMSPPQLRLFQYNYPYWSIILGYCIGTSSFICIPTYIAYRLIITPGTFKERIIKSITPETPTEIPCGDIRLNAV
Sequence of Vascular endothelial growth factor receptor 2 (P35968 whole entry): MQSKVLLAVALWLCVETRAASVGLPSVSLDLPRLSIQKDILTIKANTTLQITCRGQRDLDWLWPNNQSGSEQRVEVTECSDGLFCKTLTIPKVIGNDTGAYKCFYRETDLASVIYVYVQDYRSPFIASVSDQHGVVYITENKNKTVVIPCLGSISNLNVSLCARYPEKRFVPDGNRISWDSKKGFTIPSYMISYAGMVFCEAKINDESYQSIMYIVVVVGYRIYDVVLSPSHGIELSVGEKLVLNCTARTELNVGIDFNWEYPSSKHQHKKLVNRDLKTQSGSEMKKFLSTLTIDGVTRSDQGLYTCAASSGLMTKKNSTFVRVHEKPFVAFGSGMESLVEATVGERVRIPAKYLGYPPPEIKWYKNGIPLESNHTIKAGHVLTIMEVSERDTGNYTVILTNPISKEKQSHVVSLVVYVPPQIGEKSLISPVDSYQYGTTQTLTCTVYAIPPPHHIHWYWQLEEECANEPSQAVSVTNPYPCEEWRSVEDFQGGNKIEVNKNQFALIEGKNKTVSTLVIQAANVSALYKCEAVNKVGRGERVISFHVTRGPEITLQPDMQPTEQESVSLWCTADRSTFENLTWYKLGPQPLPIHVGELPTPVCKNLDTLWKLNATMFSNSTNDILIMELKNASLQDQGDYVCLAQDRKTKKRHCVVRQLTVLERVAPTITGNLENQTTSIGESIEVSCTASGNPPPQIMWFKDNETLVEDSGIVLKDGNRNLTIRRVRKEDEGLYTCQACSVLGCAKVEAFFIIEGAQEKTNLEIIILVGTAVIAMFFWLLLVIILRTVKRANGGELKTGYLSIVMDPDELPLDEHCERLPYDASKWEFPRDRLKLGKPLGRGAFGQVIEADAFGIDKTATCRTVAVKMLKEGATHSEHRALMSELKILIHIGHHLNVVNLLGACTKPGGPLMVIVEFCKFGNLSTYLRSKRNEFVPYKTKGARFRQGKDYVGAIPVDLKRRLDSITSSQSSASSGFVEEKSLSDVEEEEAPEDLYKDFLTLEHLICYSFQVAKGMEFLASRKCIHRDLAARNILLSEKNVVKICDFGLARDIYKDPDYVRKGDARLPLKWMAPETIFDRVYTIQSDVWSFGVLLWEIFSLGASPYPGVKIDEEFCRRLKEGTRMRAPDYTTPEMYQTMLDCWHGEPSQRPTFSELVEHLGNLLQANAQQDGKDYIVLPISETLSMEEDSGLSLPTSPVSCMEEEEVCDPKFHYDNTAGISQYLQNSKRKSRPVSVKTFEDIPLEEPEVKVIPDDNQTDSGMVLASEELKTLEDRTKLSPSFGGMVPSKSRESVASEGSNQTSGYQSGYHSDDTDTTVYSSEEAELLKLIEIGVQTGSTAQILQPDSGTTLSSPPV

Compound	AC50 [1] [µM]	AC50 [2] [µM]	AC50 [3] [µM]	AC50 (Thromboxane A2 receptor) [µM]	AC50 [4] [µM]	AC50 [5] [µM]	AC50 [6] [µM]	AC50 [7] [µM]	AC50 [8] [µM]	AC50 [9] [µM]	AC50 (Prothrombin) [µM]	AC50 (D(3) dopamine receptor) [µM]	AC50 (Estrogen receptor) [µM]	AC50 (D(1A) dopamine receptor) [µM]	AC50 [10] [µM]
Cc1c(C(C)C)c(=O)n(-c2ccccc2)n1C [PROPYPHENAZONE]	> 30	> 30	> 30	> 30	> 30	> 30	> 30	> 30	> 30	> 30	> 30	> 30	> 30	> 30	> 30
COC(=O)N(C)c1c(N)nc(-c2nn(Cc3ccccc3F)c3ncccc23)nc1N [RIOCIGUAT]	> 30	> 30	> 30	> 30	> 30	> 30	> 30	> 30	> 30	> 30	> 30	> 30	> 30	> 30	> 30
CC(C)NC[C@H](O)COc1ccc(CCOCC2CC2)cc1 [LEVOBETAXOLOL]	> 30	> 30	> 30	> 30	> 30	> 30	> 30	> 30	> 30	> 30	> 30	> 30		> 30	> 30
Nc1ccn(C[C@@H](CO)OCP(=O)(O)O)c(=O)n1 [CIDOFOVIR]	> 30	> 30	> 30	> 30	> 30	> 30	> 30	> 30	> 30	> 30	> 30	> 30		> 30	> 30
COc1cc(C[C@@H]2NCCc3cc(O)c(O)cc32)cc(OC)c1OC [TRETOQUINOL]	> 30	> 30	> 30		0.829	> 30	> 30	> 30	5.31	7.31	> 30	1.81	> 30	4.72	> 30
CC(C)Cc1ccc(C(C)C(=O)OCc2ccccn2)cc1 (stereo not drawn) [IBUPROFEN PICONOL]	> 30	> 30	> 30	> 30	> 30	> 30	22.1	> 30	10.8	> 30	> 30		> 30	> 30	> 30
Cc1ncc(CO)c(CO)c1O [PYRIDOXINE]	> 30	> 30	> 30	> 30	> 30	> 30	> 30	> 30	> 3	> 30	> 30	> 30		> 30	> 30
Cc1cccc(C)c1NC(=O)CN(CC(=O)O)CC(=O)O [LIDOFENIN]	> 30	> 30	> 30	> 30	> 30	> 30	> 30	> 30	> 30	> 30	> 30	> 30		> 30	> 30
N[C@@H](Cc1ccc(O)cc1)C(=O)O [TYROSINE]	> 30	> 30	> 30	> 30	> 30	> 30	> 30	> 30	> 30	> 30	> 30	> 30		> 30	> 30

Source: ChEMBL document CHEMBL5291721, “A preclinical secondary pharmacology resource illuminates target-adverse drug reaction associations of marketed drugs” (Nat Commun, 2023)
